{"source": "patent US8586747B2", "about": "“3,3-dimethyl tetrahydroquinoline derivatives” (Hoffmann-La Roche Inc., priority 2010, dated 2013)"}
{"tested_on": "AMP-activated protein kinase (AMPK)", "experiment": "ADP Quest assay for AMPK activators", "format": "biochemical", "set-up": "key: fold AMPK activation with vs without activator at 30 µM", "details": "fold of AMPK activation to phosphorylate SAMS peptide without and with an activator at the concentration of 30 µM", "how_it_was_run": "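AMPK phosphorylation of SAMS peptide with ATP monitored kinetically at room temperature by ADP Quest fluorescence (ex 530/em 590 nm), reaction started with enzyme. Compounds tested […] in 2-fold dilutions, AMP as reference. E30 is fold activation at 30 µM activator versus none.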"}
{"molecule": "CC(C)(C)c1ccc(-c2cccc(C3Nc4ccc(F)c(C(=O)NS(C)(=O)=O)c4CC3(C)C)c2)cc1", "note": "(stereo not shown) [Example 157, N-[2-(4′-tert-Butyl-biphenyl-3-yl)-6-fluoro-3,3-dimethyl-1,2,3,4-tetrahydro-quinoline-5-carbonyl]-methanesulfonamide]", "E30": 1.36}
{"molecule": "CC(C)(C)NC(=O)c1ccc(-c2cccc(C3Nc4ccc(C(=O)NS(C)(=O)=O)cc4CC3(C)C)c2)cc1", "note": "(stereo not shown) [Example 160, 3′-(6-Methanesulfonylaminocarbonyl-3,3-dimethyl-1,2,3,4-tetrahydro-quinolin-2-yl)-biphenyl-4-carboxylic acid tert-butylamide]", "E30": 1.23}
{"molecule": "CC(C)Oc1ccc(-c2cccc(C3Nc4ccc(C(=O)NS(=O)(=O)C5CC5)cc4CC3(C)C)c2)cc1", "note": "(stereo not shown) [Example 86, Cyclopropanesulfonic acid [2-(4′-isopropoxy-biphenyl-3-yl)-3,3-dimethyl-1,2,3,4-tetrahydro-quinoline-6-carbonyl]-amide]", "E30": 2.74}
{"molecule": "CC1(C)Cc2cc(C(=O)NS(C)(=O)=O)ccc2NC1c1cc(Cl)cc(N2CCOCC2)c1", "note": "(stereo not shown) [Example 57, N-[2-(3-Chloro-5-morpholin-4-yl-phenyl)-3,3-dimethyl-1,2,3,4-tetrahydro-quinoline-6-carbonyl]-methanesulfonamide]", "E30": 1.25}
{"molecule": "CN1CCN(c2cccc(C3Nc4c(cc(Cl)cc4C(=O)NS(=O)(=O)C4CC4)CC3(C)C)c2)CC1", "note": "(stereo not shown) [Example 139, Cyclopropanesulfonic acid {6-chloro-3,3-dimethyl-2-[3-(4-methyl-piperazin-1-yl)-phenyl]-1,2,3,4-tetrahydro-quinoline-8-carbonyl}-amide]", "E30": 1.38}
{"molecule": "CC1(C)Cc2cc(C(=O)NS(C)(=O)=O)ccc2NC1c1cccc(C(=O)Nc2ccccc2)c1", "note": "(stereo not shown) [Example 9, 3-(6-Methanesulfonylaminocarbonyl-3,3-dimethyl-1,2,3,4-tetrahydro-quinolin-2-yl)-N-phenyl-benzamide]", "E30": 1.28}
{"molecule": "CN(C)C(=O)N(C)c1cccc(C2Nc3ccc(C(=O)O)cc3CC2(C)C)c1", "note": "(stereo not shown) [Example 30, 3,3-Dimethyl-2-[3-(trimethyl-ureido)-phenyl]-1,2,3,4-tetrahydro-quinoline-6-carboxylic acid]", "E30": 1.45}
{"molecule": "CC1(C)Cc2c(C(=O)O)ccc(Cl)c2NC1c1cccc(N2CCOCC2)c1", "note": "(stereo not shown) [Example 111, 8-Chloro-3,3-dimethyl-2-(3-morpholin-4-yl-phenyl)-1,2,3,4-tetrahydro-quinoline-5-carboxylic acid]", "E30": 1.24}
{"molecule": "CC1(C)Cc2cc(C(=O)O)ccc2NC1c1ccc(F)c(NC(=O)C2CCCCC2)c1", "note": "(stereo not shown) [Example 211, 2-(3-(Cyclohexanecarboxamido)-4-fluorophenyl)-3,3-dimethyl-1,2,3,4-tetrahydroquinoline-6-carboxylic acid]", "E30": 1.41}
{"molecule": "CC(C)[C@H]1COC(=O)N1c1cccc(C2Nc3ccc(C(=O)O)cc3CC2(C)C)c1", "note": "(stereo partly shown) [Example 122]", "E30": 1.39}
{"molecule": "CN(C)CCNC(=O)c1cccc(C2Nc3ccc(C(=O)O)cc3CC2(C)C)c1", "note": "(stereo not shown) [Example 203, 2-(3-(2-(Dimethylamino)ethylcarbamoyl)phenyl)-3,3-dimethyl-1,2,3,4-tetrahydroquinoline-6-carboxylic acid]", "E30": 1.53}
{"molecule": "CC1(C)Cc2cc(C(=O)O)ccc2NC1c1cccc(N2CCN(c3ccc(Cl)cc3)CC2)c1", "note": "(stereo not shown) [Example 87, 2-{3-[4-(4-Chloro-phenyl)-piperazin-1-yl]-phenyl}-3,3-dimethyl-1,2,3,4-tetrahydro-quinoline-6-carboxylic acid]", "E30": 1.3}
{"molecule": "CC1(C)Cc2cc(C(=O)O)ccc2NC1c1cccc(C(=O)N2CCCCC2)c1", "note": "(stereo not shown) [Example 191, 3,3-Dimethyl-2-(3-(piperidine-1-carbonyl)phenyl)-1,2,3,4-tetrahydroquinoline-6-carboxylic acid]", "E30": 1.27}
{"molecule": "CC1(C)Cc2cc(C(=O)O)ccc2NC1c1ccc(F)c(NC(=O)C2CC2)c1", "note": "(stereo not shown) [Example 189, 2-(3-(Cyclopropanecarboxamido)-4-fluorophenyl)-3,3-dimethyl-1,2,3,4-tetrahydroquinoline-6-carboxylic acid]", "E30": 1.31}
{"molecule": "CN1CCN(c2cccc(C3Nc4ccc(C(=O)NS(C)(=O)=O)cc4CC3(C)C)c2)C(=O)C1=O", "note": "(stereo not shown) [Example 131, N-{3,3-Dimethyl-2-[3-(4-methyl-2,3-dioxo-piperazin-1-yl)-phenyl]-1,2,3,4-tetrahydro-quinoline-6-carbonyl}-methanesulfonamide]", "E30": 1.24}
{"molecule": "CC(C)(Nc1ccccc1C1Nc2ccc(C(=O)O)cc2CC1(C)C)C(=O)O", "note": "(stereo not shown) [Example 163, 2-[2-(1-Carboxy-1-methyl-ethylamino)-phenyl]-3,3-dimethyl-1,2,3,4-tetrahydro-quinoline-6-carboxylic acid]", "E30": 3.68}
{"molecule": "CC1(C)Cc2cc(C(=O)O)ccc2NC1c1cccc(N2C(=O)OCC2(C)C)c1", "note": "(stereo not shown) [Example 34, 2-[3-(4,4-Dimethyl-2-oxo-oxazolidine-3-yl)-phenyl]-3,3-dimethyl-1,2,3,4-tetrahydro-quinoline-6-carboxylic acid]", "E30": 1.15}
{"molecule": "CC(C)(Nc1cccc(C2Nc3ccc(C(=O)O)cc3CC2(C)C)c1)C(=O)O", "note": "(stereo not shown) [Example 15, 2-[3-(1-Carboxy-1-methyl-ethylamino)-phenyl]-3,3-dimethyl-1,2,3,4-tetrahydro-quinoline-6-carboxylic acid]", "E30": 3.59}
{"molecule": "CC1(C)Cc2cc(Cl)cc(C(=O)NS(=O)(=O)C3CC3)c2NC1c1cccc(N2CCOCC2)c1", "note": "(stereo not shown) [Example 101, Cyclopropanesulfonic acid [6-chloro-3,3-dimethyl-2-(3-morpholin-4-yl-phenyl)-1,2,3,4-tetrahydro-quinoline-8-carbonyl]-amide]", "E30": 1.4}
{"molecule": "CCS(=O)(=O)NC(=O)c1ccc2c(c1)CC(C)(C)C(c1cccc(N3CCOCC3)c1)N2", "note": "(stereo not shown) [Example 98, Ethanesulfonic acid [3,3-dimethyl-2-(3-morpholin-4-yl-phenyl)-1,2,3,4-tetrahydro-quinoline-6-carbonyl]-amide]", "E30": 1.44}
{"molecule": "CC1(C)Cc2cc(C(=O)NS(C)(=O)=O)ccc2NC1c1cccc(N2CCOC2=O)c1", "note": "(stereo not shown) [Example 110, N-{3,3-Dimethyl-2-[3-(2-oxo-oxazolidin-3-yl)-phenyl]-1,2,3,4-tetrahydro-quinoline-6-carbonyl}-methanesulfonamide]", "E30": 1.24}
{"molecule": "CNS(=O)(=O)c1cccc(C2Nc3ccc(C(=O)O)cc3CC2(C)C)c1", "note": "(stereo not shown) [Example 228, 3,3-Dimethyl-2-(3-(N-methylsulfamoyl)phenyl)-1,2,3,4-tetrahydroquinoline-6-carboxylic acid]", "E30": 1.38}
{"molecule": "CC1(C)Cc2cc(C(=O)O)ccc2NC1c1ccc(NC(=O)c2ccccc2)cc1", "note": "(stereo not shown) [Example 185, 2-(4-Benzamidophenyl)-3,3-dimethyl-1,2,3,4-tetrahydroquinoline-6-carboxylic acid]", "E30": 1.22}
{"molecule": "CN(C(N)=O)c1cccc(C2Nc3ccc(C(=O)O)cc3CC2(C)C)c1", "note": "(stereo not shown) [Example 31, 3,3-Dimethyl-2-[3-(1-methyl-ureido)-phenyl]-1,2,3,4-tetrahydro-quinoline-6-carboxylic acid]", "E30": 1.33}
{"molecule": "CC1(C)Cc2cc(Cl)cc(C(=O)O)c2NC1c1cccc(N2CCOCC2)c1", "note": "(stereo not shown) [Example 100, 6-Chloro-3,3-dimethyl-2-(3-morpholin-4-yl-phenyl)-1,2,3,4-tetrahydro-quinoline-8-carboxylic acid]", "E30": 1.4}
{"molecule": "CC1(C)Cc2cc(C(=O)NS(=O)(=O)C3CC3)ccc2NC1c1cc(Cl)cc(N2CCOCC2)c1", "note": "(stereo not shown) [Example 56, Cyclopropanesulfonic acid [2-(3-chloro-5-morpholin-4-yl-phenyl)-3,3-dimethyl-1,2,3,4-tetrahydro-quinoline-6-carbonyl]-amide]", "E30": 1.26}
{"molecule": "CCc1nnnn1-c1cccc(C2Nc3ccc(C(=O)NS(C)(=O)=O)cc3CC2(C)C)c1", "note": "(stereo not shown) [Example 146, N-{2-[3-(5-Ethyl-tetrazol-1-yl)-phenyl]-3,3-dimethyl-1,2,3,4-tetrahydro-quinoline-6-carbonyl}-methanesulfonamide]", "E30": 1.21}
{"molecule": "CC1(C)Cc2cc(C(=O)NS(C)(=O)=O)ccc2NC1c1ccc(F)c(N2CCOCC2)c1", "note": "(stereo not shown) [Example 59, N-[2-(4-Fluoro-3-morpholin-4-yl-phenyl)-3,3-dimethyl-1,2,3,4-tetrahydro-quinoline-6-carbonyl]-methanesulfonamide]", "E30": 1.2}
{"molecule": "CC1(C)Cc2cc(C(=O)O)ccc2NC1c1ccccc1NS(=O)(=O)c1ccc(F)cc1", "note": "(stereo not shown) [Example 218, 2-(2-(4-Fluorophenylsulfonamido)phenyl)-3,3-dimethyl-1,2,3,4-tetrahydroquinoline-6-carboxylic acid]", "E30": 2.53}
{"molecule": "CC1(C)Cc2cc(C(=O)O)ccc2NC1c1cc(Cl)cc(N2CCOCC2)c1", "note": "(stereo not shown) [Example 55, 2-(3-Chloro-5-morpholin-4-yl-phenyl)-3,3-dimethyl-1,2,3,4-tetrahydro-quinoline-6-carboxylic acid]", "E30": 1.28}
{"molecule": "CC1(C)Cc2cc(C(=O)O)ccc2NC1c1ccccc1NS(=O)(=O)c1ccccc1", "note": "(stereo not shown) [Example 220, 3,3-Dimethyl-2-(2-(phenylsulfonamido)phenyl)-1,2,3,4-tetrahydroquinoline-6-carboxylic acid]", "E30": 1.89}
{"molecule": "CC1(C)Cc2cc(C(=O)NS(=O)(=O)C3CC3)ccc2NC1c1cc(F)cc(F)c1", "note": "(stereo not shown) [Example 52, Cyclopropanesulfonic acid [2-(3,5-difluoro-phenyl)-3,3-dimethyl-1,2,3,4-tetrahydro-quinoline-6-carbonyl]-amide]", "E30": 1.35}
{"molecule": "COCCNC(=O)c1cccc(C2Nc3ccc(C(=O)O)cc3CC2(C)C)c1", "note": "(stereo not shown) [Example 192, 2-(3-(2-Methoxyethylcarbamoyl)phenyl)-3,3-dimethyl-1,2,3,4-tetrahydroquinoline-6-carboxylic acid]", "E30": 1.27}
{"molecule": "CC(=O)N1CCN(c2cccc(C3Nc4c(cc(Cl)cc4C(=O)O)CC3(C)C)c2)CC1", "note": "(stereo not shown) [Example 81, 2-[3-(4-Acetyl-piperazin-1-yl)-phenyl]-6-chloro-3,3-dimethyl-1,2,3,4-tetrahydro-quinoline-8-carboxylic acid]", "E30": 2.85}
